Test results from patent US8314103B2, “Pyridyl derivatives, their preparation and use” (Piramal Enterprises Limited, priority 2007, dated 2012).

What was measured:
[1] = system: HIF overexpressing cell lines; assay: Anti-proliferative assay (3H-Thymidine incorporation); format: cell-based; settings: Homo sapiens; average across a panel of HIF overexpressing cell lines; 48 hours; read-out: Anti Proliferative Potential (3H-Thymidine), average IC50
Protocol: The anti-proliferative potential of compounds of present invention across a panel of cancer cell lines as described herein above was determined using ^3H-Thymidine incorporation. […] Cells were seeded at a density of 3000-5000 cells per well in 180 μL volume in transparent 96 well tissue culture plate (NUNC, USA) and incubated for 12-18 hours at 37° C., 5% CO2. Subsequently, 20 μL of compounds of present invention (diluted in medium at concentrations ranging from 30 μM, 10 μM, 3 μM, 1 μM, 0.3 μM or 0.1 μM) were added to each well. Cells were then incubated for 48 hours at 37° C., 5% CO2 After the incubation, all the medium from the plates was aspirated and ^3H-Thymidine was added to all wells at a concentration of 0.25 μCi/well in 200 μL it complete medium (RPMI with 10% FBS). Plates were incubated at 37° C., 5% CO2 for further 6-14 hours. Following this incubation period, cells from 96 well plates were harvested with the help of cell harvester (Packard, USA) on a 96 well glass-filter plate (Unifilter-96, GF/B, Packard, USA). The filter plates were dried completely at 60° C. for 1 hour or overnight at room temperature. After drying, the bottom of the plates was sealed with bottom seals and 0.05 mL/well of scintillate fluid was added per well (Microscint-O, Packard). The plates were sealed from the top, read on Scintillation counter (TopCount, Packard) and percent inhibition and IC50 were calculated.

HIF-1α = HIF-1α assay (luciferase reporter gene, U251 HRE / U251 pGL3 cells); format: cell-based, human; settings: SI greater than 4 indicates specificity towards HIF-1α inhibition under hypoxia conditions
Description: • U251-HRE: Genetically engineered U251 human glioma cells stably expressing a recombinant vector (pGL2-TK-HRE) in which the Luciferase reporter gene was under the control of hypoxia-responsive element and G418 vector. • U251-pGL3: To exclude compounds that can inhibit luciferase expression in non-specific and/or HIF-1 independent fashion a control cell line genetically engineered U251 human glioma cells stably expressing a recombinant vector (pGL3), U251-pGL3 was used.
U251 HRE and U251 pGL3 cells were grown and maintained in RPMI1640 medium supplemented with 5% FBS. Cells were seeded in 96 well plate at a density of 1.5×10^4 cells in 180 μL per well and incubated at 37° C., 5% CO2 overnight. […] The plates were incubated under two sets of conditions which were as follows.
• (<1% oxygen (O2), 5% CO2 and 94% Nitrogen, incubation temp 37° C.) Condition 2: Normoxia • (21% O2, 5% CO2 and 74% Nitrogen, incubation temp 37° C.)
Plates were incubated for 24 hours, thereafter cell were lysed with Lysis Buffer followed by addition of substrate. Plates were read for luminescence on POLARSTAR™ (or TOPCOUNT™).
To identify the specificity of the compounds of present invention to inhibit HIF-1α under hypoxia conditions, Specificity Index (SI) was calculated as follows:
An observed SI of greater than 4 indicates specificity towards HIF-1α inhibition under hypoxia conditions.

Cytotoxicity assay (MTS) = format: cell-based; settings: human, panel of HIF over expressing cell lines, average across a panel of HIF overexpressing cell lines, read-out: Cytotoxic Potential (MTS/PI), average IC50
Protocol: Cytotoxicity and Anti-proliferative Assay
Cytotoxic potential of compounds of the present invention was tested using various HIF over expressing cell lines (source and culture conditions as described in Table-1 herein above). Cells were seeded at a density of 3000-5000 cells per well in 180 μL volume in transparent 96 well tissue culture plate (NUNC, USA) and incubated for 12-18 hours at 37° C., 5% CO2. Subsequently, 20 μL of compounds of present invention (diluted in medium at concentrations ranging from 30 μM, 10 μM, 3 μM, 1 μM, 0.3 μM or 0.1 μM) were added to each well. Cells were then incubated for 48 hours at 37° C., 5% CO2. Following the incubation, 20 μL of MTS solution with PMS (Promega) was added in each well. After 4 hours incubation, the absorbance of the fluid in each well was determined at 490 nm using a microwell plate spectrophotometer reader (Molecular Devices, Sunnyvale, Calif., USA). In every experiment, each condition was run in triplicate wells.

mTOR = target: T1, mTOR (Homo sapiens, UniProt P42345); assay: Cell based mTOR assay; settings: IGF-I induced AKT/p70S6K1 phosphorylation; read-out: Inhibition of mTOR (cell-based): IC50
T1 construct: endogenous in cells
Protocol: The mTOR assay was designed as given in Biochem J., 2000, 350, 717-722 with modifications as described below.
Cells were seeded in a 96 well microtitre plate at a density of 50,000 cells/cm^2 in appropriate complete cell culture medium. The cells were allowed to adhere for 18-24 hours. The cells were pretreated (in triplicates) with the test compound at a concentration of 10 μM for 30 minutes followed by induction with 400 ng/ml IGF-I for 24 hours (to induce AKT and p70S6K1 phosphorylation). A typical assay would consist of a set of unstimulated well, a set of stimulated and a set each of wells treated with compound and the stimulator. The medium was discarded. The cells were fixed with 100 μl of 3.7% formaldehyde for 15 minutes. The formaldehyde was discarded by inverting the plate and tapping it on a thick tissue paper layer to remove traces. The cells were washed and permeabilized with 200 μL PBS-Triton solution (containing 0.1% triton-X 100 in 1× PBS) three times, incubating the cells each time for 5 minutes. 100 μL blocking solution (10% FCS in PBS-Triton) was added and incubated for 1 hour at room temperature. The blocking solution was discarded and cells were incubated with the primary antibody in PBS-Triton at a dilution of 1:500 for 1 hour at room temperature. [The primary antibody is Phospho-AKT (Ser 473); Cell Signaling; Cat. No. 9271; Phospho p70S6K1 (Thr 389), Cell Signaling, Cat. No. 9205]. The primary antibody solution was discarded and the cells were washed 3 times with PBS-Triton solution and incubated with the HRP-conjugated secondary antibody in PBS-Triton at a dilution of 1:500 for 1 hour at room temperature. The cells were washed 3 times with PBS-Triton followed by two washes with PBS (to remove traces of triton-X 100). The OPD (o-phenylene diamine dihydrochloride) substrate was prepared for detection of the signal by dissolving one tablet set (two tablets) of SigmaFast OPD (Sigma, Cat No. P9187) in 20 mL distilled water, and was protected from light. 100 μL OPD solution was added to the wells and the plate was incubated in the dark for 3-5 minutes (depending upon the development of the colour). The reaction was stopped by adding 50 μL 2 N sulphuric acid (H2SO4). The absorbance was measured at 490 nm. The values were expressed in the treated samples, in terms of percentage or fold decrease in AKT/p70 phosphorylation with respect to the induced sample.

PI3Kα kinase = PI3Kα kinase (Homo sapiens, UniProt P42336); assay: PI3Kα kinase assay; format: biochemical; settings: 10 μM ATP; read-out: Inhibition of PI3Kα (kinase): IC50
Chain of PI3Kα kinase (P42336 whole entry): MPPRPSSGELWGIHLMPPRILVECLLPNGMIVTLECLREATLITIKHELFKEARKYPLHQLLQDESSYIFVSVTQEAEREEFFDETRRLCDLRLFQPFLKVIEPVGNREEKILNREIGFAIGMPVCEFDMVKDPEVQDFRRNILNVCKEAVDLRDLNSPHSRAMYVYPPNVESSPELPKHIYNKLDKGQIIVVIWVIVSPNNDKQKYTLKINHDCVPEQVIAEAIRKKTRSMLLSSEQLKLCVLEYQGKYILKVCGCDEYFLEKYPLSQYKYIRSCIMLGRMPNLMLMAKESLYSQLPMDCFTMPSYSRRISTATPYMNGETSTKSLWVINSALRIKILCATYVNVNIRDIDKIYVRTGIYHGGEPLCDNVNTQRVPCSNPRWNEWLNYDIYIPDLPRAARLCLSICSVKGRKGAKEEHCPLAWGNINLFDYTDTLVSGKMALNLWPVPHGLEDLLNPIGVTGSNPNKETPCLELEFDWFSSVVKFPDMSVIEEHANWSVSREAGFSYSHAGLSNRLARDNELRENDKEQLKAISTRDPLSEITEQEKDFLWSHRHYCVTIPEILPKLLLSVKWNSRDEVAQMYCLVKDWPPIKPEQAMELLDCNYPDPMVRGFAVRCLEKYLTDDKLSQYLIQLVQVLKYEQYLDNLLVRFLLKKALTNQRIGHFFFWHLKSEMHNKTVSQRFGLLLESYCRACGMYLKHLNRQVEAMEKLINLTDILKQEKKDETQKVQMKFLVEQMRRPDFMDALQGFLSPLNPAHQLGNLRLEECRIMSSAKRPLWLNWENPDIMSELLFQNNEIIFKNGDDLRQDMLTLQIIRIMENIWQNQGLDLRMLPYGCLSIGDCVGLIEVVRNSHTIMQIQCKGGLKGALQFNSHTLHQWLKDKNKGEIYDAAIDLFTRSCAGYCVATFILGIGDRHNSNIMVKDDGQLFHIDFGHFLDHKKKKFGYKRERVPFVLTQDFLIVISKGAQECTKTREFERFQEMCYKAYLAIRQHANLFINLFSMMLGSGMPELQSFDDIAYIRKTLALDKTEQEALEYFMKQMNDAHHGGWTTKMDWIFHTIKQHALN
Chain of PI3Kα kinase (P27986 whole entry partner): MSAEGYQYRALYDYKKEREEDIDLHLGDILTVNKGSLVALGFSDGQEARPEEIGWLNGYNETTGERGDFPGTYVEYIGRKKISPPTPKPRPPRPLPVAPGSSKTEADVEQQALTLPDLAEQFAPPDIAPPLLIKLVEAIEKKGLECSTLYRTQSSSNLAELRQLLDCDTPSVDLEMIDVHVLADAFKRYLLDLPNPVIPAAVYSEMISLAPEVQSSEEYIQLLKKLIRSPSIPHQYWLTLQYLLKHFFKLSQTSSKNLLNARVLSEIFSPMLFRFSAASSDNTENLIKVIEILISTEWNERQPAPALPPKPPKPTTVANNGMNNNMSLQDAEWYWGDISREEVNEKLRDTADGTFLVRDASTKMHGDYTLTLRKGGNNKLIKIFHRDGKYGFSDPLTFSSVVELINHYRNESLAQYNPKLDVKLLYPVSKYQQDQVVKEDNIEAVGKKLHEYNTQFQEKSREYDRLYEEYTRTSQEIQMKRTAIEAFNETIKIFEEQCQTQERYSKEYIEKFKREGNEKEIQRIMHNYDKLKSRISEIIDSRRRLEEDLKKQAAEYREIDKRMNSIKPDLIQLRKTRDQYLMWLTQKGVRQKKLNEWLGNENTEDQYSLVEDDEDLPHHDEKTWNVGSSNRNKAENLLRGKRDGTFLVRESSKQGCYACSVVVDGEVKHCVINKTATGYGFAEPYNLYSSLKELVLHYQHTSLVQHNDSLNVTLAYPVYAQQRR
Protocol: The PI3K kinase assay was designed as given in Cell, 2006, 125, 733-747.
The kinase reaction was carried out in a 25 μL reaction in a 1.5 ml microcentrifuge tube. The reaction mixture consisted of kinase buffer (10 mM Hepes, pH 7.5, 50 mM MgCl2), 20 ng PI3Kα kinase, 12.5 μg phosphotidylinositol (PI), 10 μM adenosine triphosphate (ATP) and 1 μCi 32γP […]. The compounds of the present invention were added at appropriate concentrations. The reactions were incubated at 30° C. for 20 minutes and were stopped by adding 1:1 mixture of methanol and chloroform. The tube contents were mixed on a vortex mixer and centrifuged at 10000 rpm for 2 minutes. 10 μL of the organic (lower) phase was spotted on to a thin layer chromatography (TLC) plate. The spots were resolved in a mobile phase consisting of a 65:35 mixture of n-propanol and 2 M glacial acetic acid. The plates were dried and exposed to an X-ray film. The bands appearing as a result of 32 g P incorporation in PI were quantitated using the QuantityOne (BioRad) densitometry program.

Structure (SMILES) | IC50 [1] [nM] | Specificity Index (HIF-1α) | IC50 at 48 h (Cytotoxicity assay (MTS)) [nM] | IC50 (mTOR) [nM] | IC50 (PI3Kα kinase) [nM]
NC(=NO)c1ccc(NC(=O)CCl)cn1 [Example 4, 2-Chloro-N-(6-(N′-hydroxycarbamimidoyl)pyridin-3-yl)acetamide] | 2000 ± 500 | >20 | 2200 ± 300 | 5000 | 
O=C(CCl)Nc1ccc(-c2noc(C(F)(F)F)n2)nc1 [Example 29, 2-Chloro-N-[6-(5-(trifluoromethyl)-1,2,4-oxadiazol-3-yl)pyridin-3-yl]acetamide] | 1500 ± 400 | >9 | 3500 ± 500 |  | 
Cc1nc(-c2ccc(NC(=O)CCl)cn2)no1 [Example 30, 2-Chloro-N-[6-(5-methyl-1,2,4-oxadiazol-3-yl)pyridin-3-yl]acetamide] | 1500 ± 200 | >11 | 3000 ± 500 |  | 
O=C(CCl)Nc1ccc(-c2noc(C(F)(F)Cl)n2)nc1 [Example 41a, 2-Chloro-N-[6-(5-(chlorodifluoromethyl)-1,2,4-oxadiazol-3-yl)pyridin-3-yl]acetamide] |  | >10 | 3500 ± 1000 |  | 
O=C(CCl)Nc1ccc(-c2nc(O)cc(C(F)(F)F)n2)nc1 [Example 53, 2-Chloro-N-(6-(4-hydroxy-6-(trifluoromethyl)pyrimidin-2-yl)pyridin-3-yl)acetamide] | 2000 ± 300 | >7 | 2000 ± 500 |  | 
C=CCOc1cc(C(F)(F)F)nc(-c2ccc(NC(=O)CCl)cn2)n1 [Example 60, N-(6-(4-(allyloxy)-6-(trifluoromethyl)pyrimidin-2-yl)pyridin-3yl-)-2-chloroacetamide] | 800 ± 200 | >15 | 2000 ± 200 | 5000 | 1500
COc1cc(C(F)(F)F)nc(-c2ccc(NC(=O)CCl)cn2)n1 [Example 61, 2-Chloro-N-(6-(4-methoxy-6-(trifluoromethyl)pyrimidin-2-yl)pyridin-3yl)acetamide] |  |  | 3000 ± 200 | 5000 | 1000
C=CCOc1nc(-c2ccc(NC(=O)CCl)cn2)nc(C)c1CC [Example 64, N-(6-(4-(allyloxy)-5-ethyl-6-methylpyrimidin-2-yl)pyridin-3yl)-2-chloroacetamide] | 1000 ± 200 |  | 1500 ± 200 | 5000 | < 1000
O=C(CCl)Nc1ccc(-c2nc(Cl)cc(C(F)(F)F)n2)nc1 [Example 71, 2-Chloro-N-(6-(4-chloro-6-(trifluoromethyl)pyrimidin-2-yl)pyridin-3-yl)acetamide] | 800 ± 200 | >6 | 1000 ± 200 |  | 
